Measured values from patent US9204653B2, “5-fluoro pyrimidine derivatives” (DOW AGROSCIENCES LLC, priority 2008, dated 2015).
Like-named read-outs stand apart in the source and are kept apart here.

System: Mycosphaerella graminicola; Anamorph: Septoria tritici; Bayer Code SEPTTR
Experiment: Leaf blotch of wheat, foliar fungicide treatment, one day protectant (1DP) or three day curative (3DC)
Assay type: in vivo, Septoria tritici on wheat plants (variety Yuma)
Conditions: Zymoseptoria tritici; for pest or weed control at 50 ppm / pest or weed control at 200 ppm: % disease control rating
[1] = 24 h, one day protectant, 25 ppm, rating of percent disease control, read-out: SETTTR 1DP 25 ppm
[2] = 24 h, one day protectant, rating of percent disease control, read-out: SEPTTR 1DP 100 ppm
[3] = 72 h, three day curative, 25 ppm, rating of percent disease control, read-out: SEPTTR 3DC 25 ppm
[4] = 72 h, three day curative, rating of percent disease control, read-out: SEPTTR 3DC 100 ppm
[5] = 24 h, one day protectant (1DP), 25 ppm (first 1DP column), percent control rating, read-out: SETTTR 1DP 25 ppm
[6] = 24 h, one day protectant (1DP), 25 ppm as printed (second 1DP column), percent control rating, read-out: SETTTR 1DP 25 ppm
[7] = 72 h, three day curative (3DC), 25 ppm, percent control rating, read-out: SEPTTR 3DC 25 ppm
[8] = 72 h, three day curative (3DC), percent control rating, read-out: SEPTTR 3DC 100 ppm
[9] = 24 h, one day protectant (1DP), 25 ppm, rating of percent disease control, read-out: SETTTR 1DP 25 ppm
[10] = 24 h, one day protectant (1DP), rating of percent disease control, read-out: SEPTTR 1DP 100 ppm
[11] = 72 h, three day curative (3DC), 25 ppm, rating of percent disease control, read-out: SEPTTR 3DC 25 ppm
[12] = 72 h, three day curative (3DC), rating of percent disease control, read-out: SEPTTR 3DC 100 ppm

Nc1nc(OCc2ccc(SC(F)(F)F)cc2)ncc1F [Compound 632] was tested, and the pest or weed control at 25 ppm [1] was 76 to 100%, the pest or weed control at 100 ppm [2] was 76 to 100% and the pest or weed control at 25 ppm [3] was 76 to 100%. For the same compound, the pest or weed control at 100 ppm [4] was 76 to 100%.

Work on COc1ccc(COc2ncc(F)c(N)n2)c(Cl)c1OC [Compound 698] yielded a pest or weed control at 25 ppm [1] of 76 to 100%, a pest or weed control at 100 ppm [2] of 76 to 100% and a pest or weed control at 25 ppm [3] of 76 to 100%. It also gave a pest or weed control at 100 ppm [4] of 76 to 100%.

C=CCOc1ncc(F)c(N/N=C/c2ccco2)n1 [Compound 1064] gave a pest or weed control at 25 ppm [5] of 0 to 25%, a pest or weed control at 25 ppm [6] of 0 to 25% and a pest or weed control at 25 ppm [7] of 0 to 25%. It also gave a pest or weed control at 100 ppm [8] of 0 to 25%.

In the case of Fc1cnc(OCc2ccccc2)nc1NNc1ccccc1 [Compound 282], the pest or weed control at 25 ppm [9] is reported as 0 to 25%, the pest or weed control at 100 ppm [10] is reported as 26 to 50% and the pest or weed control at 25 ppm [11] is reported as 26 to 50%. It also gave a pest or weed control at 100 ppm [12] of 51 to 75%.

COc1ncc(F)c(NOCCOc2ccccc2)n1 [Compound 1081] showed a pest or weed control at 25 ppm [5] of 0 to 25%, a pest or weed control at 25 ppm [6] of 0 to 25% and a pest or weed control at 25 ppm [7] of 0 to 25%. It also gave a pest or weed control at 100 ppm [8] of 0 to 25%.

With CC[Si](CC)(CC)Nc1nc(OCCCOC)ncc1F [Compound 279] the pest or weed control at 25 ppm [9] was 51 to 75%, the pest or weed control at 100 ppm [10] was 76 to 100% and the pest or weed control at 25 ppm [11] was 76 to 100%. It also gave a pest or weed control at 100 ppm [12] of 76 to 100%.

Compound COCCCOc1ncc(F)c(N)n1 [Compound 315] has a pest or weed control at 25 ppm [9] of 51 to 75%, a pest or weed control at 100 ppm [10] of 76 to 100% and a pest or weed control at 25 ppm [11] of 76 to 100%. For the same compound, the pest or weed control at 100 ppm [12] was 76 to 100%.

For CC1CC1COc1ncc(F)c(N)n1 (stereo not drawn) [Compound 747], the pest or weed control at 25 ppm [9] was 0 to 25%, the pest or weed control at 100 ppm [10] was 76 to 100% and the pest or weed control at 25 ppm [11] was 51 to 75%. The pest or weed control at 100 ppm [12] was 76 to 100%.

Compound Nc1nc(OCc2ccc(F)cc2F)ncc1F [Compound 289] has a pest or weed control at 25 ppm [9] of 76 to 100%, a pest or weed control at 100 ppm [10] of 76 to 100% and a pest or weed control at 25 ppm [11] of 76 to 100%. For the same compound, the pest or weed control at 100 ppm [12] was 76 to 100%.

Fc1ccccc1CNc1nc(OCc2ccc(Cl)c(Cl)c2)ncc1F [Compound 883] gave a pest or weed control at 50 ppm (24 h, one day protectant) of 76 to 100% and a pest or weed control at 200 ppm (24 h, one day protectant) of 76 to 100%.

Compound CNc1nc(OCc2cc(OC)c(OC)c(OC)c2)ncc1F [Compound 480] has a pest or weed control at 25 ppm [9] of 0 to 25%, a pest or weed control at 100 ppm [10] of 0 to 25% and a pest or weed control at 25 ppm [11] of 0 to 25%. For the same compound, the pest or weed control at 100 ppm [12] was 0 to 25%.

COc1ccccc1COc1ncc(F)c(N)n1 [Compound 300] showed a pest or weed control at 25 ppm [9] of 76 to 100%, a pest or weed control at 100 ppm [10] of 76 to 100% and a pest or weed control at 25 ppm [11] of 76 to 100%. The pest or weed control at 100 ppm [12] was 76 to 100%.

In the case of Cc1cc(COc2ncc(F)c(N)n2)no1 [Compound 939], the pest or weed control at 50 ppm (24 h, one day protectant) is reported as 0 to 25% and the pest or weed control at 200 ppm (24 h, one day protectant) is reported as 76 to 100%.

In the case of CN1CCC/C1=N\c1nc(OCc2ccc(F)cc2)ncc1F [Compound 274], the pest or weed control at 25 ppm [9] is reported as 76 to 100%, the pest or weed control at 100 ppm [10] is reported as 76 to 100% and the pest or weed control at 25 ppm [11] is reported as 76 to 100%. For the same compound, the pest or weed control at 100 ppm [12] was 76 to 100%.

For Fc1cnc(OCc2ccccc2)nc1/N=C/N1CCc2ccccc2C1 [Compound 679], the pest or weed control at 25 ppm [1] was 76 to 100%, the pest or weed control at 100 ppm [2] was 76 to 100% and the pest or weed control at 25 ppm [3] was 76 to 100%. For the same compound, the pest or weed control at 100 ppm [4] was 76 to 100%.

CCCCCNC(=S)Nc1nc(OCc2ccc(C)cc2)ncc1F [Compound 287] was tested, and the pest or weed control at 25 ppm [9] was 76 to 100%, the pest or weed control at 100 ppm [10] was 76 to 100% and the pest or weed control at 25 ppm [11] was 76 to 100%. It also gave a pest or weed control at 100 ppm [12] of 76 to 100%.

Nc1nc(OCc2ccnc3ccccc23)ncc1F [Compound 401] was tested, and the pest or weed control at 25 ppm [9] was 76 to 100%, the pest or weed control at 100 ppm [10] was 76 to 100% and the pest or weed control at 25 ppm [11] was 76 to 100%. It also gave a pest or weed control at 100 ppm [12] of 76 to 100%.

In the case of C=CCOc1ncc(F)c(N/N=C/C(C)=C/C)n1 [Compound 1063], the pest or weed control at 25 ppm [5] is reported as 0 to 25%, the pest or weed control at 25 ppm [6] is reported as 0 to 25% and the pest or weed control at 25 ppm [7] is reported as 0 to 25%. For the same compound, the pest or weed control at 100 ppm [8] was 0 to 25%.

O=C(Nc1nc(OCc2ccccc2)ncc1F)OCc1ccccc1 [Compound 298] was tested, and the pest or weed control at 25 ppm [9] was 76 to 100%, the pest or weed control at 100 ppm [10] was 76 to 100% and the pest or weed control at 25 ppm [11] was 76 to 100%. It also gave a pest or weed control at 100 ppm [12] of 76 to 100%.

In the case of C=CCOc1ncc(F)c(N(O)Cc2ccccc2)n1 [Compound 1088], the pest or weed control at 25 ppm [5] is reported as 0 to 25%, the pest or weed control at 25 ppm [6] is reported as 26 to 50% and the pest or weed control at 25 ppm [7] is reported as 0 to 25%. The pest or weed control at 100 ppm [8] was 0 to 25%.

CCCCOc1cc(COc2ncc(F)c(N)n2)ccc1OC [Compound 650] gave a pest or weed control at 25 ppm [1] of 76 to 100%, a pest or weed control at 100 ppm [2] of 76 to 100% and a pest or weed control at 25 ppm [3] of 76 to 100%. The pest or weed control at 100 ppm [4] was 76 to 100%.

For C=C(C)COc1ncc(F)c(N)n1 [Compound 256], the pest or weed control at 25 ppm [9] was 0 to 25%, the pest or weed control at 100 ppm [10] was 0 to 25% and the pest or weed control at 25 ppm [11] was 0 to 25%. It also gave a pest or weed control at 100 ppm [12] of 26 to 50%.
